Measured values: EP0672419A1, “BLOOD PRESSURE REGULATOR” (Asahi Kasei Kogyo Kabushiki Kaisha, priority 1991, dated 1995)

Experiments:
adult mongrel dogs [1] = test: Induced hypotension in ten halothane-anesthetized dogs, average arterial blood pressure kept at 60 mmHg for 60 min (Example 6); format: in vivo, dog; conditions: mean ± S.D.
Experimental: Adult mongrel dog, mean body weight 12.7 ± 3.1 kg, was anesthesized with pentobarbital 25 mg/kg, intratarcheally cannulated and maintained anesthetic condition by 0.87% halothane-oxygen (1 MAC, minimum anesthetic concentration). Respiration was controlled, by using respirator (Harvard Corp., Model 613E ) at Paco₂ 35±5 mmHg.
Catheters were introduced to right femoral vein and artery for monitering arterial blood pressure, arterial blood gas analysis and infusion, and left cardiac catheter was introduced to left femoral […] to monitor left ventricular pressure. The changes in left ventricular pressure were differentiated continuously using a pressure processor (Nihon Koden Co., EQ-601G) to measure a maximum left ventricular systolic ratio (LV dp/dt max). The active ingredient of the present invention was administered to left femoral vein. Pulmonary arterial catheter (7F, Swan-Ganz® catheter) was introduced through right external jugular vein to monitor pulmonary artery pressure (PAP), paulmonary arterial wedge pressure (pulmonary capillary wedge pressure, PCWP) and cardiac output (CO). Pressure was monitored by using disporsable pressure monitoring kit (Gould Corp.), and electrocardiogram, arteriala pressure, left ventricle pressure (LVP) and maximum left ventricular systolic ratio (LV dp/dt max) were monitored by polygraph (Nihon Koden Co.) . Cardiac output (CO) was measured by thermal dilution method using cardiac output monitor (Nihon Koden Co Model MTC6210). Blood gas analysis was made by using automatic blood gas analyser (Radiometer Corp. ABL3). Mean artery pressure (MAP), cardiac index(CI) stroke volume index (SI), systemic vascular resistance (SVR), pulmonary vascular resistance (PVR), left ventricle stroke work index (LVSWI) and coronary perfusion pressure (CPP) were calculated by standard calculation equations, respectively.
To maintain low blood pressure, the active ingredient was intraveneously administered for 60 minutes with maintaining maximum dose at 40 µg/kg and adjusting to maintain mean arteraial pressure at 50 mmHg. Physiological saline was used for maintenance infusion and administered in combination with the active ingredient at 7 ml/kg/hr. At blood sampling two fold volume of hydroxyethylstarch (6-HES) was supplementary administered. Body temperature was maintained at 37 ± 1°C by covering with blanket.
Example 5 was repeated by substantially almost same manner using ten adult mongrel dogs, mean body weight 14.7±2.1 kg, applying same anesthetic condition with maintaining artificially hypotensive with average arterial blood pressure at 60 mmHg for 60 min., and administering the active ingredient desalanyl-deamino-c-CGRP.
A value at time more than 60 minutes passed after completing the start of the experiment and stabilizing a depth of anesthesia and blood flow, was set as control (S₁). Monitorings were performed at 30 min. and 60 min. under reduced blood pressure in induced hypotension, and at 10 min. and 30 min. after terminating the reduced blood pressure in induced hypotension (after stopping administration), for totally five points of time.
Results are shown by mean ± S.D.
Amount of the active ingredient for maintaining average arterial blood pressure at 60 mmHg for 60 minutes was 5 µg-115 µg/kg.

adult mongrel dogs [2] = test: Phenylephrine-induced hypertension in four anesthetized dogs (Example 8); format: in vivo, dog; conditions: 10 µg/kg/hr on top of phenylephrine 10 µg/kg/min
Experimental: Example 6 was repeated by substantially almost same manner using four adult mongrel dogs, mean body weight 12.3±3.0 kg, applying same anesthetic condition. After setting up the experiment at more than 60 minutes passing and confirming to stabilize the depth of anesthesia and blood flow, phenylephrine (hypertensor) 10 µg/kg/min was administered.
Further after 10 minutes passed, the active ingredient, desalanyl-deamino-c-CGRP 10 µg/kg/hr was administered and at 10 min. and 20 min. after administration of the active ingredient, heart rate (HR) and mean a artery pressure (MAP) were measured.

[3] = after terminating reduced blood pressure 10 min.
[4] = after terminating reduced blood pressure 30 min.
[5] = reduced blood pressure 30 min., MAP kept at 60 mmHg
[6] = reduced blood pressure 60 min., MAP kept at 60 mmHg
[7] = after administ. of CGRP 10 min(20min)
[8] = after administ. of CGRP 20 min(30min)

In the case of desalanyl-deamino-c-CGRP, the “CI: Cardiac index” value (adult mongrel dogs [1]; [3]) is reported as 4.025±0.685 ** 1/min/m², the “CO: Cardiac output” value (adult mongrel dogs [1]; [3]) is reported as 2.751±0.438 * 1/min and the “CPP: Coronary perfusion pressure” value (adult mongrel dogs [1]; [3]) is reported as 50.5±5.5 mmHg. For the same substance, the “CVP: Central venous pressure” value (adult mongrel dogs [1]; [3]) was 2.9±1.5 mmHg, the “DAP: Diastolic artery pressure” value (adult mongrel dogs [1]; [3]) was 59.2±5.1 mmHg and the “DPAP: Diastolic pulmonary artery pressure” value (adult mongrel dogs [1]; [3]) was 11.3±5.2 mmHg. For the same substance, the “EtCO₂: Expiration terminal CO₂ pressure” value (adult mongrel dogs [1]; [3]) was 39.5±5.8 mmHg, the “HR: Heart rate” value (adult mongrel dogs [1]; [3]) was 158.8±33.8 beat/min and the “LV dp/dt max: maximum left ventricular systolic ratio” value (adult mongrel dogs [1]; [3]) was 3370.0±783.2 mmHg/sec. For the same substance, the “LVEP: Left ventricle end pressure” value (adult mongrel dogs [1]; [3]) was 0.1±0.3 mmHg, the “LVP: Left ventricle pressure” value (adult mongrel dogs [1]; [3]) was 119.5±16.3 mmHg and the “LVSWI: Left ventricle stroke work index” value (adult mongrel dogs [1]; [3]) was 23.970±6.998 g.m/beat/m². The “MAP: Mean artery pressure” value (adult mongrel dogs [1]; [3]) was 75.7±4.3 mmHg, the “MPAP: Mean pulmonary artery pressure” value (adult mongrel dogs [1]; [3]) was 18.3±6.0 mmHg and the “PCWP: Pulmonary capillary wedge pressure” value (adult mongrel dogs [1]; [3]) was 9.2±4.1 mmHg. The “PVR: Pulmonary vascular resistance” value (adult mongrel dogs [1]; [3]) was 273.30±100.09 dynes · sec/cm⁵, the “RPP: Rate pressure products” value (adult mongrel dogs [1]; [3]) was 14920.0±3480.0 mmHg.beat/min and the “RVSWI: Right ventricle stroke work index” value (adult mongrel dogs [1]; [3]) was 5.209±1.501 g.m/beat/m². The “SAP: Systolic artery pressure” value (adult mongrel dogs [1]; [3]) was 94.4±7.2 mmHg, the “SI: Stroke index” value (adult mongrel dogs [1]; [3]) was 26.300±6.720 ml/HR/m² and the “SPAP: Systolic pulmonary artery pressure” value (adult mongrel dogs [1]; [3]) was 26.8±7.2 mmHg. For the same substance, the SV: Stroke volumes (adult mongrel dogs [1]; [3]) was 18.2 ± 5.63 mL/beat, the “SVR: Systemic vascular resistance” value (adult mongrel dogs [1]; [3]) was 2162.0±419.2 dynes · sec/cm⁵ and the “CI: Cardiac index” value (adult mongrel dogs [1]; [4]) was 3.638±0.587 1/min/m². For the same substance, the “CO: Cardiac output” value (adult mongrel dogs [1]; [4]) was 2.487 ± 0.378 min⁻¹, the “CPP: Coronary perfusion pressure” value (adult mongrel dogs [1]; [4]) was 63.5±5.3 mmHg and the “CVP: Central venous pressure” value (adult mongrel dogs [1]; [4]) was 3.2±1.1 mmHg. For the same substance, the “DAP: Diastolic artery pressure” value (adult mongrel dogs [1]; [4]) was 74.1±4.7 mmHg, the “DPAP: Diastolic pulmonary artery pressure” value (adult mongrel dogs [1]; [4]) was 11.3±5.4 mmHg and the “EtCO₂: Expiration terminal CO₂ pressure” value (adult mongrel dogs [1]; [4]) was 39.3±5.9 mmHg. The “HR: Heart rate” value (adult mongrel dogs [1]; [4]) was 151.6±27.9 beat/min, the “LV dp/dt max: maximum left ventricular systolic ratio” value (adult mongrel dogs [1]; [4]) was 3220.0±708.4 mmHg/sec and the “LVEP: Left ventricle end pressure” value (adult mongrel dogs [1]; [4]) was 0.0±0.0 mmHg. The “LVP: Left ventricle pressure” value (adult mongrel dogs [1]; [4]) was 132.3±20.0 mmHg, the “LVSWI: Left ventricle stroke work index” value (adult mongrel dogs [1]; [4]) was 27.680±7.370 g.m/beat/m² and the “MAP: Mean artery pressure” value (adult mongrel dogs [1]; [4]) was 92.8±6.3 mmHg. For the same substance, the “MPAP: Mean pulmonary artery pressure” value (adult mongrel dogs [1]; [4]) was 18.7±6.3 mmHg, the “PCWP: Pulmonary capillary wedge pressure” value (adult mongrel dogs [1]; [4]) was 10.6±4.5 mmHg and the “PVR: Pulmonary vascular resistance” value (adult mongrel dogs [1]; [4]) was 269.10±109.58 dynes · sec/cm⁵. For the same substance, the “RPP: Rate pressure products” value (adult mongrel dogs [1]; [4]) was 18100.0±3938.4 mmHg.beat/min, the “RVSWI: Right ventricle stroke work index” value (adult mongrel dogs [1]; [4]) was 4.882±1.138 g.m/beat/m² and the “SAP: Systolic artery pressure” value (adult mongrel dogs [1]; [4]) was 119.4±10.1 mmHg. The “SI: Stroke index” value (adult mongrel dogs [1]; [4]) was 24.760±6.720 ml/HR/m², the “SPAP: Systolic pulmonary artery pressure” value (adult mongrel dogs [1]; [4]) was 27.4±7.2 mmHg and the SV: Stroke volumes (adult mongrel dogs [1]; [4]) was 17 ± 5.07 mL/beat. For the same substance, the “SVR: Systemic vascular resistance” value (adult mongrel dogs [1]; [4]) was 2961.0±700.9 dynes · sec/cm⁵, the “CI: Cardiac index” value (adult mongrel dogs [1]; [5]) was 3.418±0.692 1/min/m² and the “CO: Cardiac output” value (adult mongrel dogs [1]; [5]) was 2.348 ± 0.528 min⁻¹. The “CPP: Coronary perfusion pressure” value (adult mongrel dogs [1]; [5]) was 38.3±4.5 mmHg, the “CVP: Central venous pressure” value (adult mongrel dogs [1]; [5]) was 2.5±1.1 mmHg and the “DAP: Diastolic artery pressure” value (adult mongrel dogs [1]; [5]) was 47.3±2.8 mmHg. For the same substance, the “DPAP: Diastolic pulmonary artery pressure” value (adult mongrel dogs [1]; [5]) was 9.9±4.0 mmHg, the “EtCO₂: Expiration terminal CO₂ pressure” value (adult mongrel dogs [1]; [5]) was 38.5±5.6 mmHg and the “HR: Heart rate” value (adult mongrel dogs [1]; [5]) was 149.3±31.7 beat/min. For the same substance, the “LV dp/dt max: maximum left ventricular systolic ratio” value (adult mongrel dogs [1]; [5]) was 3070.0±771.8 mmHg/sec, the “LVEP: Left ventricle end pressure” value (adult mongrel dogs [1]; [5]) was 0.0±0.0 mmHg and the “LVP: Left ventricle pressure” value (adult mongrel dogs [1]; [5]) was 102.7±14.1 mmHg. For the same substance, the “LVSWI: Left ventricle stroke work index” value (adult mongrel dogs [1]; [5]) was 16.906±5.750 g.m/beat/m², the “MAP: Mean artery pressure” value (adult mongrel dogs [1]; [5]) was 60.4±0.7 mmHg and the “MPAP: Mean pulmonary artery pressure” value (adult mongrel dogs [1]; [5]) was 15.6±5.3 mmHg. The “PCWP: Pulmonary capillary wedge pressure” value (adult mongrel dogs [1]; [5]) was 9.0±4.0 mmHg, the “PVR: Pulmonary vascular resistance” value (adult mongrel dogs [1]; [5]) was 231.10±80.62 dynes · sec/cm⁵ and the “RPP: Rate pressure products” value (adult mongrel dogs [1]; [5]) was 11357.0±2260.5 mmHg.beat/min. The “RVSWI: Right ventricle stroke work index” value (adult mongrel dogs [1]; [5]) was 3.979±1.239 g.m/beat/m², the “SAP: Systolic artery pressure” value (adult mongrel dogs [1]; [5]) was 76.5±4.8 mmHg and the “SI: Stroke index” value (adult mongrel dogs [1]; [5]) was 23.810±6.952 ml/HR/m². The “SPAP: Systolic pulmonary artery pressure” value (adult mongrel dogs [1]; [5]) was 23.0±6.2 mmHg, the SV: Stroke volumes (adult mongrel dogs [1]; [5]) was 16.5 ± 5.78 mL/beat and the “SVR: Systemic vascular resistance” value (adult mongrel dogs [1]; [5]) was 2054.0±455.6 dynes · sec/cm⁵. For the same substance, the “CI: Cardiac index” value (adult mongrel dogs [1]; [6]) was 4.006 ±0.771 ** 1/min/m², the “CO: Cardiac output” value (adult mongrel dogs [1]; [6]) was 2.739 ±0.518 * 1/min and the “CPP: Coronary perfusion pressure” value (adult mongrel dogs [1]; [6]) was 38.3±4.9 mmHg. For the same substance, the “CVP: Central venous pressure” value (adult mongrel dogs [1]; [6]) was 2.2±1.2 mmHg, the “DAP: Diastolic artery pressure” value (adult mongrel dogs [1]; [6]) was 47.7±2.6 mmHg and the “DPAP: Diastolic pulmonary artery pressure” value (adult mongrel dogs [1]; [6]) was 11.3±4.9 mmHg. For the same substance, the “EtCO₂: Expiration terminal CO₂ pressure” value (adult mongrel dogs [1]; [6]) was 39.8±6.9 mmHg, the “HR: Heart rate” value (adult mongrel dogs [1]; [6]) was 154.3 ± 33.8 beat/min and the “LV dp/dt max: maximum left ventricular systolic ratio” value (adult mongrel dogs [1]; [6]) was 3210.0±749.0 mmHg/sec. The “LVEP: Left ventricle end pressure” value (adult mongrel dogs [1]; [6]) was 0.0±0.0 mmHg, the “LVP: Left ventricle pressure” value (adult mongrel dogs [1]; [6]) was 104.7±16.3 mmHg and the “LVSWI: Left ventricle stroke work index” value (adult mongrel dogs [1]; [6]) was 18.949±6.280 g.m/beat/m². The “MAP: Mean artery pressure” value (adult mongrel dogs [1]; [6]) was 60.1±0.9 mmHg, the “MPAP: Mean pulmonary artery pressure” value (adult mongrel dogs [1]; [6]) was 17.7±5.9 mmHg and the “PCWP: Pulmonary capillary wedge pressure” value (adult mongrel dogs [1]; [6]) was 9.4±4.7 mmHg. For the same substance, the “PVR: Pulmonary vascular resistance” value (adult mongrel dogs [1]; [6]) was 251.20±97.14 dynes · sec/cm⁵, the “RPP: Rate pressure products” value (adult mongrel dogs [1]; [6]) was 11462.0±2765.1 mmHg.beat/min and the “RVSWI: Right ventricle stroke work index” value (adult mongrel dogs [1]; [6]) was 5.380±1.747 g.m/beat/m². The “SAP: Systolic artery pressure” value (adult mongrel dogs [1]; [6]) was 74.4±4.9 mmHg, the “SI: Stroke index” value (adult mongrel dogs [1]; [6]) was 27.030 ±7.664 ml/HR/m² and the “SPAP: Systolic pulmonary artery pressure” value (adult mongrel dogs [1]; [6]) was 25.5±7.3 mmHg. For the same substance, the SV: Stroke volumes (adult mongrel dogs [1]; [6]) was 18.5 ± 5.94 mL/beat, the “SVR: Systemic vascular resistance” value (adult mongrel dogs [1]; [6]) was 1748.0±409.1 dynes · sec/cm⁵ and the HR: Heart rate (adult mongrel dogs [2]; [7]) was 103 beats/min. The “MAP: Mean artery pressure” value (adult mongrel dogs [2]; [7]) was 104.8 ±2.7 mmHg, the “HR: Heart rate” value (adult mongrel dogs [2]; [8]) was 104±2.8 beat/min and the “MAP: Mean artery pressure” value (adult mongrel dogs [2]; [8]) was 184±4.9 mmHg.
